Source: patent EP4775208A1, “USE OF PRMT5 INHIBITOR IN TREATMENT OF TUMORS OR CANCERS” (Apeiron Therapeutics (Hong Kong) Ltd., priority 2023, dated 2025)
Several values for one entry are separate records, joined by “and”; a condition that tells them apart may be missing. Equal entries are not always repeated. Where two headings read alike, the source gives them in different places.

Assay: Mouse brain penetration pharmacokinetics study (plasma and brain)
Assay type: in vivo, ICR male mice
Procedure: IV. Mouse Brain Penetration Pharmacokinetics Study
The test compounds used in this study were the compounds described in the specific examples of the present disclosure.
ICR male mice, N=3/group; sourced from Zhejiang Vital River Laboratory Animal Technology Co., Ltd.
3. Drug Preparation and Administration
Single oral (PO) administration to ICR mice: Compounds were dissolved in dimethyl sulfoxide, added to polyethylene glycol 400 and sterile water, and then adjusted to a clear solution with a small amount of 1 mol/L hydrochloric acid. After overnight fasting, the mice were orally gavaged with a dose of 30 mg/kg or 100 mg/kg.
Blood Collection and Processing: Mice were anesthetized with 5% isoflurane for 3-4 minutes until loss of consciousness. Whole blood (500 µL per time point) was collected via cardiac puncture using dipotassium EDTA (K2EDTA) as the anticoagulant. Plasma was separated by centrifugation ([…] for 5 minutes at 4°C). […] The samples were stored at -80°C.
Brain Tissue Collection: Following complete exsanguination, the thoracic cavity was opened with scissors. The right atrium was incised, and a needle was inserted into the left ventricle. Transcardial perfusion was performed with physiological saline (approximately 10 mL). Upon completion of perfusion, the skull was opened, and brain tissues were harvested and stored at -80°C.
Sample Preparation: A 30 µL plasma aliquot (consisting of 10 µL study sample and 20 µL blank plasma) was mixed with 200 µL of ice-cold acetonitrile containing an internal standard (IS). The mixture was vortexed for 30 seconds and then centrifuged at 4,000 g/min for 20 minutes. A 100 µL aliquot of the supernatant was transferred to a 96-well plate and mixed with 200 µL of ultrapure water. After vortexing for 30 seconds, a volume of 5 µL or 10 µL was injected into the LC-MS/MS system for analysis.
Brain Homogenate Preparation: Brain tissue samples were weighed and homogenized in phosphate-buffered saline (PBS) at a 1:4 ratio (tissue weight [g] to PBS volume [mL]). A 30 µL aliquot of brain homogenate (consisting of 10 µL study sample and 20 µL blank brain homogenate) was mixed with 200 µL of ice-cold acetonitrile containing an internal standard. The mixture was vortexed for 30 seconds and centrifuged at 4,000 g/min for 20 minutes. A 100 µL aliquot of the supernatant was transferred to a 96-well plate and mixed with 200 µL of ultrapure water. After vortexing for 30 seconds, a volume of 2 µL or 10 µL was injected into the LC-MS/MS system for analysis. Table 9: PK data

[1] = ICR male mice, PO(30mg/kg), sampling time 4 h, individual animals, 30 mg/kg
[2] = ICR male mice, PO(30mg/kg), sampling time 8 h, individual animals, 30 mg/kg
[3] = ICR male mice, PO(30mg/kg), sampling time 12 h, individual animals, 30 mg/kg
[4] = ICR male mice, PO(30mg/kg), sampling time 24 h, individual animals, 30 mg/kg
[5] = ICR male mice, PO(30mg/kg), sampling time 36 h, individual animals, 30 mg/kg
[6] = ICR male mice, PO(100mg/kg), sampling time 2 h, individual animals, 100 mg/kg
[7] = ICR male mice, PO(100mg/kg), sampling time 4 h, individual animals, 100 mg/kg
[8] = ICR male mice, PO(100mg/kg), sampling time 8 h, individual animals, 100 mg/kg
[9] = ICR male mice, PO(100mg/kg), sampling time 24 h, individual animals, 100 mg/kg

## CN(C(=O)c1ccc2nc(N)c3cncn3c2c1)[C@@H]1COc2cc(C(F)(F)F)ccc21 [Example 107, (S)-4-amino-N-methy 1-N-(6-(trifluoromethy 1)-2,3-dihydrobenzofuran-3-yl)imidazo[1,5-a]quinoxaline-8-carboxamide]
[1]
  B/P ratio: 0.122 and 0.152
  Brain concentration: 885 ng/g and 1290 ng/g and 1780 ng/g
  Plasma concentration: 10600 ng/mL and 11700 ng/mL
[2]
  B/P ratio: 0.227 and 0.305
  Brain concentration: 1700 ng/g and 2080 ng/g
  Plasma concentration: 7500 ng/mL and 6810 ng/mL
[3]
  B/P ratio: 0.435 and 0.320
  Brain concentration: 1040 ng/g and 855 ng/g
  Plasma concentration: 2390 ng/mL and 2670 ng/mL
[4]
  B/P ratio: 0.186 and 0.225
  Brain concentration: 47.6 ng/g and 65.0 ng/g and 142 ng/g
  Plasma concentration: 201 ng/mL and 349 ng/mL and 631 ng/mL
[5]
  B/P ratio: 0.653 and 0.705
  Brain concentration: 25.0 ng/g and 19.1 ng/g
  Plasma concentration: 38.3 ng/mL and 27.1 ng/mL
[6]
  B/P ratio: 0.114 and 0.195
  Brain concentration: 6650 ng/g and 4740 ng/g and 10800 ng/g
  Plasma concentration: 41500 ng/mL and 55400 ng/mL
[7]
  B/P ratio: 0.143 and 0.168
  Brain concentration: 4560 ng/g and 6100 ng/g
  Plasma concentration: 32000 ng/mL and 36400 ng/mL
[8]
  B/P ratio: 0.151 and 0.142
  Brain concentration: 1455 ng/g and 2480 ng/g
  Plasma concentration: 9620 ng/mL and 17500 ng/mL
[9]
  B/P ratio: 0.278 and 0.222
  Brain concentration: 356 ng/g and 434 ng/g
  Plasma concentration: 1280 ng/mL and 1950 ng/mL
male, ICR, mouse, brain and plasma, po, 30 mg/kg, ICR male mice, PO(30mg/kg), sampling time 4 h, individual animals, read-out: B/P ratio
  Kp at 4 h: 0.118
male, ICR, mouse, brain and plasma, po, 30 mg/kg, ICR male mice, PO(30mg/kg), sampling time 8 h, individual animals, read-out: B/P ratio
  Kp at 8 h: 0.286
male, ICR, mouse, brain and plasma, po, 30 mg/kg, ICR male mice, PO(30mg/kg), sampling time 12 h, individual animals, read-out: B/P ratio
  Kp at 12 h: 0.365
male, ICR, mouse, brain and plasma, po, 30 mg/kg, ICR male mice, PO(30mg/kg), sampling time 24 h, individual animals, read-out: B/P ratio
  Kp at 24 h: 0.237
male, ICR, mouse, brain and plasma, po, 30 mg/kg, ICR male mice, PO(30mg/kg), sampling time 36 h, individual animals, read-out: B/P ratio
  Kp at 36 h: 0.605
male, ICR, mouse, brain and plasma, po, 100 mg/kg, ICR male mice, PO(100mg/kg), sampling time 2 h, individual animals, read-out: B/P ratio
  Kp at 2 h: 0.171
male, ICR, mouse, brain and plasma, po, 100 mg/kg, ICR male mice, PO(100mg/kg), sampling time 4 h, individual animals, read-out: B/P ratio
  Kp at 4 h: 0.168
male, ICR, mouse, brain and plasma, po, 100 mg/kg, ICR male mice, PO(100mg/kg), sampling time 8 h, individual animals, read-out: B/P ratio
  Kp at 8 h: 0.2
male, ICR, mouse, brain and plasma, po, 100 mg/kg, ICR male mice, PO(100mg/kg), sampling time 24 h, individual animals, read-out: B/P ratio
  Kp at 24 h: 0.321
male, ICR, mouse, brain, po, 30 mg/kg, ICR male mice, PO(30mg/kg), sampling time 8 h, individual animals, read-out: Brain concentration
  concentration at 8 h: 1820 ng/g
male, ICR, mouse, brain, po, 30 mg/kg, ICR male mice, PO(30mg/kg), sampling time 12 h, individual animals, read-out: Brain concentration
  concentration at 12 h: 1000 ng/g
male, ICR, mouse, brain, po, 30 mg/kg, ICR male mice, PO(30mg/kg), sampling time 36 h, individual animals, read-out: Brain concentration
  concentration at 36 h: 30 ng/g
male, ICR, mouse, brain, po, 100 mg/kg, ICR male mice, PO(100mg/kg), sampling time 4 h, individual animals, read-out: Brain concentration
  concentration at 4 h: 5550 ng/g
male, ICR, mouse, brain, po, 100 mg/kg, ICR male mice, PO(100mg/kg), sampling time 8 h, individual animals, read-out: Brain concentration
  concentration at 8 h: 2460 ng/g
male, ICR, mouse, brain, po, 100 mg/kg, ICR male mice, PO(100mg/kg), sampling time 24 h, individual animals, read-out: Brain concentration
  concentration at 24 h: 427 ng/g
male, ICR, mouse, plasma, po, 30 mg/kg, ICR male mice, PO(30mg/kg), sampling time 4 h, individual animals, read-out: Plasma concentration
  concentration at 4 h: 7520 ng/mL
male, ICR, mouse, plasma, po, 30 mg/kg, ICR male mice, PO(30mg/kg), sampling time 8 h, individual animals, read-out: Plasma concentration
  concentration at 8 h: 6370 ng/mL
male, ICR, mouse, plasma, po, 30 mg/kg, ICR male mice, PO(30mg/kg), sampling time 12 h, individual animals, read-out: Plasma concentration
  concentration at 12 h: 2750 ng/mL
male, ICR, mouse, plasma, po, 30 mg/kg, ICR male mice, PO(30mg/kg), sampling time 36 h, individual animals, read-out: Plasma concentration
  concentration at 36 h: 49.6 ng/mL
male, ICR, mouse, plasma, po, 100 mg/kg, ICR male mice, PO(100mg/kg), sampling time 2 h, individual animals
  concentration at 2 h: 38800 ng/mL
male, ICR, mouse, plasma, po, 100 mg/kg, ICR male mice, PO(100mg/kg), sampling time 4 h, individual animals, read-out: Plasma concentration
  concentration at 4 h: 33100 ng/mL
male, ICR, mouse, plasma, po, 100 mg/kg, ICR male mice, PO(100mg/kg), sampling time 8 h, individual animals, read-out: Plasma concentration
  concentration at 8 h: 12300 ng/mL
male, ICR, mouse, plasma, po, 100 mg/kg, ICR male mice, PO(100mg/kg), sampling time 24 h, individual animals, read-out: Plasma concentration
  concentration at 24 h: 1330 ng/mL
Rodents (ICR mice), oral 30 mg/kg or 100 mg/kg, result in words
  brain penetration: favorable brain penetration
